Assay results from PubChem BioAssay AID248 (DTP/NCI, 2004).
“And” between values parts separate entries of the source, which are not always exact repeats. Equal values may be shown once. Inconclusive results and toxic doses are left out. Cut-off read from the data, not from the text of the source: active = T/C of 150% or more; inactive = T/C below 125%.

Tested on: L1210 leukemia ip in BDF1 mice, survival T/C
Assay: NCI In Vivo Anticancer Drug Screen. Data for tumor model L1210 Leukemia (intraperitoneal) in B6D2F1 (BDF1) mice
Details: endpoint: mean survival time, higher = longer survival
Outline: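 Tumor cells were implanted, animals were treated, and survival was followed. The result divides the treated measurement by the vehicle-control measurement.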

[1] = dose: 25.0 mg/kg/injection, schedule: Q01DX009 (ip), vehicle: Klucel (hydroxypropylcellulose) (HPC)
[2] = dose: 50.0 mg/kg/injection, schedule: Q01DX009 (ip), vehicle: Klucel (hydroxypropylcellulose) (HPC)
[3] = dose: 50.0 mg/kg/injection, schedule: Q04DX003 (ip), vehicle: Klucel (hydroxypropylcellulose) (HPC)
[4] = dose: 100.0 mg/kg/injection, schedule: Q01DX009 (ip), vehicle: Klucel (hydroxypropylcellulose) (HPC)
[5] = dose: 100.0 mg/kg/injection, schedule: Q04DX003 (ip), vehicle: Klucel (hydroxypropylcellulose) (HPC)
[6] = dose: 200.0 mg/kg/injection, schedule: Q01DX009 (ip), vehicle: Klucel (hydroxypropylcellulose) (HPC)
[7] = dose: 200.0 mg/kg/injection, schedule: Q04DX003 (ip), vehicle: Klucel (hydroxypropylcellulose) (HPC)
[8] = dose: 400.0 mg/kg/injection, schedule: Q04DX003 (ip), vehicle: Klucel (hydroxypropylcellulose) (HPC)
[9] = dose: 100.0 mg/kg/injection, schedule: Q01DX001 (ip), vehicle: carboxymethylcellulose (CMC)
[10] = dose: 200.0 mg/kg/injection, schedule: Q01DX001 (ip), vehicle: carboxymethylcellulose (CMC)
[11] = dose: 400.0 mg/kg/injection, schedule: Q01DX001 (ip), vehicle: carboxymethylcellulose (CMC)
[12] = dose: 100.0 mg/kg/injection, schedule: Q01DX001 (ip), vehicle: saline
[13] = dose: 400.0 mg/kg/injection, schedule: Q01DX001 (ip), vehicle: saline
[14] = dose: 200.0 mg/kg/injection, schedule: Q01DX001 (ip), vehicle: saline

Measured: T/C

O=Nc1ccc(O)cc1
inactive: [1] 96 % of control | dose: 25.0 mg/kg/injection, schedule: Q04DX002 (ip), vehicle: Klucel (hydroxypropylcellulose) (HPC) 104 % of control | dose: 25.0 mg/kg/injection, schedule: Q04DX003 (ip), vehicle: Klucel (hydroxypropylcellulose) (HPC) 102 % of control | [2] 102 % of control and 103 % of control | dose: 50.0 mg/kg/injection, schedule: Q04DX002 (ip), vehicle: Klucel (hydroxypropylcellulose) (HPC) 100 % of control | [3] 98 % of control | [4] 112 % of control and 123 % of control | dose: 100.0 mg/kg/injection, schedule: Q04DX002 (ip), vehicle: Klucel (hydroxypropylcellulose) (HPC) 104 % of control | [5] 100 % of control | [6] 100 % of control and 110 % of control | dose: 200.0 mg/kg/injection, schedule: Q04DX002 (ip), vehicle: Klucel (hydroxypropylcellulose) (HPC) 103 % of control | [7] 104 % of control

ClC(Cl)(Cl)C(Cl)(Cl)OC(Cl)(Cl)C(Cl)(Cl)Cl
inactive: dose: 100.0 mg/kg/injection, schedule: Q01DX001 (ip), vehicle: Klucel (hydroxypropylcellulose) (HPC) 107 % of control | [5] 100 % of control | dose: 200.0 mg/kg/injection, schedule: Q01DX001 (ip), vehicle: Klucel (hydroxypropylcellulose) (HPC) 112 % of control | [7] 92 % of control | dose: 400.0 mg/kg/injection, schedule: Q01DX001 (ip), vehicle: Klucel (hydroxypropylcellulose) (HPC) 95 % of control | [8] 95 % of control

NC(Cc1ccccc1)C(=O)O (configuration not stated)
inactive: dose: 75.0 mg/kg/injection, schedule: Q01DX001 (ip), vehicle: saline with Tween-80 102 % of control | [9] 93 % of control | [5] 102 % of control | dose: 150.0 mg/kg/injection, schedule: Q01DX001 (ip), vehicle: saline with Tween-80 102 % of control | [10] 96 % of control | [7] 86 % of control | dose: 300.0 mg/kg/injection, schedule: Q01DX001 (ip), vehicle: saline with Tween-80 98 % of control | [11] 93 % of control

CCOC(=O)C(O)(O)C(C)C
inactive: [12] 113 % of control | [13] 113 % of control

Cc1ccc2nc(-c3cc(Br)ccc3O)c(-c3cc(Br)ccc3O)nc2c1
inactive: [4] 97 % of control | [5] 96 % of control | [6] 100 % of control | [7] 101 % of control | dose: 400.0 mg/kg/injection, schedule: Q01DX009 (ip), vehicle: Klucel (hydroxypropylcellulose) (HPC) 89 % of control | [8] 101 % of control

CC1CCCCC1OC(=O)CCN1CC1 (configuration not stated)
inactive: dose: 3.0 mg/kg/injection, schedule: Q01DX009 (ip), vehicle: Klucel (hydroxypropylcellulose) (HPC) 94 % of control | dose: 6.0 mg/kg/injection, schedule: Q01DX009 (ip), vehicle: Klucel (hydroxypropylcellulose) (HPC) 94 % of control | dose: 12.0 mg/kg/injection, schedule: Q01DX009 (ip), vehicle: Klucel (hydroxypropylcellulose) (HPC) 100 % of control | [1] 94 % of control and 102 % of control | [2] 109 % of control | [3] 108 % of control | [5] 97 % of control and 108 % of control | [7] 104 % of control

Cc1ccc(C(=O)Nc2ccc3c(c2)Cc2ccccc2-3)cc1
inactive: dose: 50.0 mg/kg/injection, schedule: Q01DX001 (ip), vehicle: saline 101 % of control | [3] 104 % of control | [12] 101 % of control | [5] 100 % of control | [14] 101 % of control | [7] 94 % of control | [13] 95 % of control

CC(=O)OC1C(C)OC(OC2C=C3CCC4C(CCC5(C)C(c6ccc(=O)oc6)CCC45O)C3(C)CC2)C(OC(C)=O)C1OC(C)=O (configuration not stated)
inactive: dose: 6.25 mg/kg/injection, schedule: Q01DX009 (ip), vehicle: saline with Tween-80 102 % of control | dose: 12.5 mg/kg/injection, schedule: Q01DX009 (ip), vehicle: saline with Tween-80 100 % of control | dose: 12.5 mg/kg/injection, schedule: Q04DX003 (ip), vehicle: saline with Tween-80 105 % of control | dose: 25.0 mg/kg/injection, schedule: Q01DX009 (ip), vehicle: saline with Tween-80 103 % of control | dose: 25.0 mg/kg/injection, schedule: Q04DX003 (ip), vehicle: saline with Tween-80 105 % of control

O=C1CSC(=S)N1c1ccc(N2C(=O)CSC2=S)cc1
inactive: dose: 100.0 mg/kg/injection, schedule: Q04DX002 (ip), vehicle: saline with Tween-80 90 % of control | dose: 200.0 mg/kg/injection, schedule: Q04DX002 (ip), vehicle: saline with Tween-80 96 % of control | dose: 400.0 mg/kg/injection, schedule: Q04DX002 (ip), vehicle: saline with Tween-80 100 % of control

CCCCN=CC(C)(C)NCCCC
inactive: dose: 50.0 mg/kg/injection, schedule: Q01DX009 (ip), vehicle: saline 95 % of control | dose: 100.0 mg/kg/injection, schedule: Q01DX009 (ip), vehicle: saline 90 % of control | dose: 100.0 mg/kg/injection, schedule: Q04DX003 (ip), vehicle: saline 106 % of control | dose: 200.0 mg/kg/injection, schedule: Q01DX009 (ip), vehicle: saline 88 % of control | dose: 200.0 mg/kg/injection, schedule: Q04DX003 (ip), vehicle: saline 104 % of control

CC1(C)CCCC(Br)C1=O (configuration not stated)
inactive: [2] 97 % of control | [4] 104 % of control

Cc1ccc2c(c1)OC(=O)CC2C (configuration not stated)
inactive: [9] 100 % of control | [10] 96 % of control | [11] 96 % of control

CCOc1ccccc1NC(=O)Oc1ccc(-c2ccccc2)cc1
inactive: dose: 100.0 mg/kg/injection, schedule: Q01DX009 (ip), vehicle: saline with Tween-80 98 % of control | dose: 200.0 mg/kg/injection, schedule: Q01DX009 (ip), vehicle: saline with Tween-80 100 % of control | dose: 400.0 mg/kg/injection, schedule: Q01DX009 (ip), vehicle: saline with Tween-80 93 % of control

CCCCCC(CN(C)C)C(=O)/C=C\c1ccc(Cl)cc1Cl (configuration not stated)
inactive: dose: 12.5 mg/kg/injection, schedule: Q04DX003 (ip), vehicle: alcohol 87 % of control | dose: 25.0 mg/kg/injection, schedule: Q04DX003 (ip), vehicle: alcohol 97 % of control | dose: 50.0 mg/kg/injection, schedule: Q04DX003 (ip), vehicle: alcohol 97 % of control

Cc1ccc(S(=O)(=O)Nc2ccccc2O)cc1
inactive: [12] 102 % of control | [14] 98 % of control | [13] 98 % of control

O=S(=O)(CCO)CCS(=O)(=O)CCO
inactive: dose: 75.0 mg/kg/injection, schedule: Q01DX009 (ip), vehicle: carboxymethylcellulose (CMC) 92 % of control | dose: 150.0 mg/kg/injection, schedule: Q01DX009 (ip), vehicle: carboxymethylcellulose (CMC) 102 % of control | dose: 300.0 mg/kg/injection, schedule: Q01DX009 (ip), vehicle: carboxymethylcellulose (CMC) 92 % of control

Cc1nc(N)nc(N)c1CCCc1ccccc1
inactive: dose: 1.56 mg/kg/injection, schedule: Q01DX001 (ip), vehicle: saline with Tween-80 93 % of control | dose: 3.13 mg/kg/injection, schedule: Q01DX001 (ip), vehicle: saline with Tween-80 93 % of control | dose: 6.25 mg/kg/injection, schedule: Q01DX001 (ip), vehicle: saline with Tween-80 95 % of control and 97 % of control
